According to patent US9023789B2, “Amylin analogs and pharmaceutical compositions thereof” (Novo Nordisk A/S, priority 2012, dated 2015):
In brackets after ≈: the same amount, converted by molar mass. Like-named read-outs stand apart in the source and are kept apart here.

Legend:
[1] = target: T1, human amylin receptor (membranes from Amylin 3(a)/CRE-luc cells) (Homo sapiens, UniProt O60896+P30988); assay: ASSAY (V) binding to the human amylin receptor (SPA, 125I-rat amylin);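 note: competition binding of cell membranes (35 ng/µL) mixed with SPA beads in 384-well plates at 40 µL total volume, read by scintillation counting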
T1 construct: expressed in transfected cells
T1 sequence (P30988 25-474): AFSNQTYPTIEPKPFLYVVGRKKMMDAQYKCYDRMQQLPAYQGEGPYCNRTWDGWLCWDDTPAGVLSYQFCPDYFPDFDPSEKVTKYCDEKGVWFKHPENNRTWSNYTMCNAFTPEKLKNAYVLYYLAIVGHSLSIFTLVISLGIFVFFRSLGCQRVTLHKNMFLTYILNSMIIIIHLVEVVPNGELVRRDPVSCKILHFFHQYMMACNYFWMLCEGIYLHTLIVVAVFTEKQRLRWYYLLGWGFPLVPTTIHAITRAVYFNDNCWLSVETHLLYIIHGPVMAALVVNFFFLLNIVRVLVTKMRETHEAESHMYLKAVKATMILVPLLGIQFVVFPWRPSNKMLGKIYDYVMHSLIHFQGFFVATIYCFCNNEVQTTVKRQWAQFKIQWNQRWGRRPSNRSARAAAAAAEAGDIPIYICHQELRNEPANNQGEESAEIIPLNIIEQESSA
T1 sequence (O60896 24-148 partner): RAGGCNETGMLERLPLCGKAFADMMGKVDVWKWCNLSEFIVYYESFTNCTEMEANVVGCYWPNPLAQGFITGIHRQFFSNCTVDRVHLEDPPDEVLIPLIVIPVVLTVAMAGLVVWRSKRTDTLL

rat calcitonin receptor = target: T2, rat calcitonin receptor (Rattus norvegicus, UniProt P32214); assay: ASSAY (VIII) binding to the rat calcitonin receptor; conditions: Table 7, read-out: rCTR bind IC50
T2 construct: expressed in transfected cells; host or cells: BHK tk'ts 13 (transient, FuGENE 6), membranes
T2 sequence (P32214 25-479 isoform P32214-2 limits assumed): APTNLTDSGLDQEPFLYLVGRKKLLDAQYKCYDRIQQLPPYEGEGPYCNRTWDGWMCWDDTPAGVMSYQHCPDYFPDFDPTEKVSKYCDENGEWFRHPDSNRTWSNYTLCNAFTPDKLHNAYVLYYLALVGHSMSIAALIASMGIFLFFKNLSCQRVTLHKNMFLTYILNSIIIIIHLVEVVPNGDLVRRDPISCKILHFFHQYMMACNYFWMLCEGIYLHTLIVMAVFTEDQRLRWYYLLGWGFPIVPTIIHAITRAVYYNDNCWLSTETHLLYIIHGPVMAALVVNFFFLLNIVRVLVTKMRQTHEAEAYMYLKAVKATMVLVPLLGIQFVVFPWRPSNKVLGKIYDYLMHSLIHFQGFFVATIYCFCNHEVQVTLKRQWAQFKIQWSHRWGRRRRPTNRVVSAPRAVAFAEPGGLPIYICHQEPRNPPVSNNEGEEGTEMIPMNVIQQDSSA
Method in brief: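 Receptor source: membranes from transiently transfected BHK tk′ts 13 cells expressing rat calcitonin receptor, collected roughly 48 hours after transfection.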

[2] = target: T3, human amylin 3(a) receptor (human calcitonin receptor + RAMP-3) in BHK570 cells (Homo sapiens, UniProt O60896+P30988); assay: ASSAY (II)a functional assay, human amylin receptor (CRE luciferase); assay type: cell-based
T3 construct: expressed in transfected cells
Method in brief: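 Functional agonism was measured by CRE-luciferase reporter luminescence in BHK cells bearing calcitonin receptor, or calcitonin receptor plus RAMP-3 as the amylin 3(a) receptor. Stimulation lasted 3 hours at 37° C.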

[3] = target: T4, rat amylin receptor (rat calcitonin receptor + rat RAMP 3) (Rattus norvegicus, UniProt P32214+Q9JJ73); assay: ASSAY (VI) binding to the rat amylin receptor
T4 construct: expressed in transfected cells; host or cells: BHK tk'ts 13 (transient, FuGENE 6), membranes
T4 sequence (P32214 25-479 isoform P32214-2 limits assumed): T2 sequence (P32214 25-479 isoform P32214-2 limits assumed)
T4 sequence (Q9JJ73 23-147 partner): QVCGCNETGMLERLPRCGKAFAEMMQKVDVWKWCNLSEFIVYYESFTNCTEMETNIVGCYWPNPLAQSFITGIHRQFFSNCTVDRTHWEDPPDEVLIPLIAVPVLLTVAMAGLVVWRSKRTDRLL
Method in brief: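 The cell-membrane assay assessed binding at the rat amylin receptor. BHK tk′ts 13 cells were transfected transiently with rat calcitonin receptor, with FuGENE® 6 (Roche) as the transfection reagent, used per the manufacturer's recommendations. Approximately 48 hours after transfection the cells were harvested, and membranes were prepared for measuring binding.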

[4] = ASSAY (IV) determination of solubility; assay type: physicochemical
Method in brief: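 UPLC read-out of polypeptide concentration after centrifugation. Samples: aqueous polypeptide stock ([…]) + 100 mM buffer 1:1, glycylglycine pH 3.0–5.0 or bistrispropane pH 6.0–8.0; 18 h, RT.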

- Ratio hCT/hAmylin binding ([1]; Table 5, selectivity, hCTR bind IC50 / hAmylin-R bind IC50): 45.2
- Ratio hCT/hAmylin binding ([1]; Table 5a, selectivity, hCTR bind IC50 / hAmylin-R bind IC50): 45.2
- Ratio hCT/hAmylin binding ([1]; Table 5b, selectivity, hCTR bind IC50 / hAmylin-R bind IC50): 45.2
- Ratio hCT/hAmylin binding ([1]; Table 5c, selectivity, hCTR bind IC50 / hAmylin-R bind IC50): 45.2
- Ratio hCT/hAmylin binding ([1]; Table 7, human binding selectivity, included for comparison): 45.2
- Ratio hCT/hAmylin binding ([1]; Table 7a (preferred compounds), human binding selectivity, included for comparison): 45.2
- Ratio hCT/hAmylin binding ([1]; ratio of human calcitonin receptor binding IC50 to human amylin receptor binding IC50): 45.2
- IC50 (rat calcitonin receptor): 26.3 nM
- Ratio hCT/hAmylin funct. ([2]; hCTR funct. EC50 divided by hAmylin-R funct. EC50): 15.3
- Ratio hCT/hAmylin funct. ([2]; hCTR funct. EC50 over hAmylin-R funct. EC50): 15.3
- Ratio hCT/hAmylin funct. ([2]; human functional selectivity: hCTR funct. EC50 / hAmylin-R funct. EC50): 15.3
- IC50 ([3]; Table 7, binding to rat amylin receptor, read-out: rAmylin-R bind IC50): 0.215 nM
- Ratio rCT/rAmylin binding ([3]; Table 7, rat binding selectivity, rCTR IC50 / rAmylin-R IC50): 122.4
- Ratio rCT/rAmylin binding ([3]; Table 7a (preferred compounds), rat binding selectivity, rCTR IC50 / rAmylin-R IC50): 122.4
- Ratio rCT/rAmylin binding ([3]; ratio of rCTR bind IC50 to rAmylin-R bind IC50): 122.4
- solubility at 18 h ([4]; bistrispropane buffer, pH 6.5, read-out: Solubility pH 6.5 Concentration): ≥ 200 µM
- solubility at 18 h ([4]; bistrispropane buffer, pH 7.5, read-out: Solubility pH 7.5 Concentration): 186 µM (≈ 819 µg/mL)
- solubility at 18 h ([4]; bistrispropane buffer, pH 6.0, read-out: Solubility pH 6.0 Concentration): ≥ 200 µM
- solubility at 18 h ([4]; bistrispropane buffer, pH 7.0, read-out: Solubility pH 7.0 Concentration): ≥ 200 µM
- solubility at 18 h ([4]; bistrispropane buffer, pH 8.0, read-out: Solubility pH 8.0 Concentration): 98 µM (≈ 432 µg/mL)
- solubility at 18 h ([4]; glycylglycine buffer, pH 3.0, read-out: Solubility pH 3.0 Concentration): ≥ 200 µM
- solubility at 18 h ([4]; glycylglycine buffer, pH 4.0, read-out: Solubility pH 4.0 Concentration): ≥ 200 µM
- solubility at 18 h ([4]; glycylglycine buffer, pH 5.0, read-out: Solubility pH 5.0 Concentration): ≥ 200 µM
SMILES: CC[C@H](C)[C@H](NC(=O)[C@H](C)NC(=O)CNC(=O)[C@H](Cc1ccccc1)NC(=O)[C@H](CC(N)=O)NC(=O)[C@@H]1CCCN1C(=O)[C@H](CO)NC(=O)[C@H](CO)NC(=O)[C@H](Cc1c[nH]cn1)NC(=O)[C@H](CCCNC(=N)N)NC(=O)[C@H](CC(C)C)NC(=O)[C@H](Cc1ccccc1)NC(=O)[C@H](CC(N)=O)NC(=O)[C@H](C)NC(=O)[C@H](CC(C)C)NC(=O)[C@H](CCCNC(=N)N)NC(=O)[C@H](CCC(N)=O)NC(=O)[C@@H](NC(=O)[C@H](C)NC(=O)[C@@H]1CSSC[C@H](NC(=O)[C@@H](N)CCCCNC(=O)CC[C@H](NC(=O)CCCCCCCCCCCCCCCCCCC(=O)O)C(=O)O)C(=O)N[C@@H](CC(N)=O)C(=O)N[C@@H]([C@@H](C)O)C(=O)N[C@@H](C)C(=O)N[C@@H]([C@@H](C)O)C(=O)N1)[C@@H](C)O)C(=O)N1CCC[C@H]1C(=O)N[C@@H](CO)C(=O)N[C@@H](CO)C(=O)N[C@H](C(=O)N[C@@H](CC(N)=O)C(=O)N[C@H](C(=O)NCC(=O)N[C@@H](CO)C(=O)N[C@@H](Cc1c[nH]cn1)C(=O)N[C@H](C(=O)N[C@@H](Cc1ccc(O)cc1)C(N)=O)[C@@H](C)O)C(C)C)[C@@H](C)O [Example 60]
